Measured values from patent publication US20160324876A1, “VITAMIN D AND ANTIBACTERIAL USES OF COMPOSITIONS THEREOF” (ZENSUN SCIENCE & TECHNOLOGY LIMITED, priority 2014, published 2016).

Columns and labels:
E. coli CFT073 [1] = assay: Antibacterial experiment: VD3-stimulated SV-HUC1 urethral epithelial cells co-incubated with E. coli CFT073, CFU of cell lysate; assay type: cell-based; conditions: SV-HUC1 cells stimulated by VD3 at different concentrations, FIG. 5
Description: In this study, with the final activated form of vitamin D3, 1,25-dihydroxyvitamin D3 [1,25 (OH)2D3] as the test substance, the immortalized human urethral epithelial cells SV-HUC1 as experimental systems, the E. coli CFT073 as antibacterial target, the cells treated by 1,25 (OH) 2D3 were co-incubated with E. coli CFT073. The E. coli CFT073 colony forming units (CFU) were used to examine whether 1,25 (OH) 2D3 achieves an antibacterial effect by stimulating cell lines derived from human to secrete antimicrobial peptides in vitro.
(§1) SV-HUC1 cells in the condition of exponential growth and about 90% confluence were digested by pancreatin (GIBCO, Cat. No. 25200-056) for 5 min. When most of the cells came off from the culture plate, complete medium was added to terminate digestion. The non-peeling cells were blown down from the culture plate by a pipette, and were transferred to a 15 ml centrifuge tube. The cells were centrifuged at 1500 rpm for three minutes. The supernatant was discarded. The cell deposit was resuspended in complete medium to ensure that the cells dispersed uniformly.
(§2) The cell suspension was counted by hemacytometer;
The concentration of cell suspension was adjusted to 4×10^5/mL using F12 incomplete medium;
Each well of 6-well plate was inoculated with 2 mL cell suspension, the total number of cells per well was 8×10^5; […]

E. coli CFT073 [2] = assay: Antibacterial experiment: VD3-stimulated 5637 bladder cells co-incubated with E. coli CFT073, CFU of cell lysate; assay type: cell-based; conditions: 5637 cells stimulated by VD3 at different concentrations, FIG. 3
Description: In this study, the final activated form of vitamin D, 1,25-dihydroxyvitamin D3 [1,25(OH)2D3] was the test substance, the human bladder cancer cells 5637 was used as experimental systems, the E. coli CFT073 was antibacterial target, cells treated by 1,25(OH)2D3 was co-incubated with E. coli CFT073. The E. coli CFT073 colony forming units (CFU) was used to examine whether 1,25(OH)2D3 achieved an antibacterial effect by stimulating cell lines derived from human to secrete antimicrobial peptides in vitro.
as §1, with “5637” for “SV-HUC1”, “uniformly dispersed.” for “dispersed uniformly.”
as §2
The concentration of cell suspension was adjusted to 4×10^5/mL using incomplete RPMI 1640 medium;
Each well of 6-well plate was inoculated with 2 mL cell suspension, the total number of cells per well was 8×10^5;
6-well plate was placed in an incubator under the condition of 37° C., 5% CO2. […]

LL-37 = assay: ELISA of LL-37 in lysate of VD3-stimulated 5637 cells; assay type: cell-based, human; conditions: 5637 cells stimulated with VD3 at different concentrations, FIG. 4
Description: 3.2 ELISA Experiments about Effect of 1,25 (OH)2D3 on LL-37 Production 3.2.1 the Procedure of Inoculation (Day1), Administration (Day2), and E. coli infection bacteria solution preparation (Day 2&3) was the same as 3.1.1, 3.1.2 and 3.1.3.
Cell lysate was obtained using the method of 3.1.4. Cell debris and bacteria were removed by 13000 rpm centrifugation for 5 min. Lysate supernatant was fetched out and LL-37 was quantified by Human LL-37 ELISA Kit (Hycult, Cat. No. HK321).

E. coli O111B4 = assay: Antibacterial experiment: supernatant of VD3-stimulated U-937 cells co-incubated with E. coli O111B4, colony count; assay type: cell-based; conditions: for CFU: U937 supernatant
Description: In this study, the final activated form of vitamin D, 1,25-dihydroxyvitamin D3 [1,25 (OH)2D3] was the test substance. The lymphoma U-937 cells of human tissue cell were used as experimental systems, the E. coli O111B4 was the antibacterial target. Cell supernatants treated by 1,25(OH)2D3 was co-incubated with E. coli O111B4. The E. coli O111B4 colony forming units (CFU) was used to examine whether 1,25(OH)2D3 achieved an antibacterial effect by stimulating cell lines derived from human to secrete antimicrobial peptides in vitro.
U-937 cells in the condition of exponential growth were centrifuged (1000 rpm, 5 min);
After centrifugation, the supernatant was discarded, and cell sediment was resuspended in an appropriate amount of RPMI1640 incomplete medium to make sure cells dispersed uniformly;
The cell suspension was counted by hemacytometer counting;
The concentration of cell suspension was adjusted to 1×10^5/mL using RPMI 1640 incomplete medium;
Each well of 6-well plate was inoculated with 3 mL cell suspension, the total number of cells per well was 3×10^5;
According to the label and the experimental design, 10 μL 200× test solution or vehicle of various concentrations with 0.5% (v/v) dose volume was added to each well.
Each dose was repeated in two parallel wells, one well harvested after 24 hours, and the other well harvested after 48 hours;
After administration, the 6-well plate was placed in 37° C., 5% CO2 incubator, cultured for 24 hours and 48 hours respectively.
Day 1 afternoon, a E. coli O111B4 glycerol pipe was thawed, 10 μL glycerol bacteria was inoculated in 10 mL of LB liquid medium without any antibiotic, and was cultured on oscillator at 37° C. overnight; Day 2 morning, 200 μL cultured broth (1:100 ratio) cultured overnight was transferred to 20 mL LB liquid medium without any antibiotics and was cultured on oscillator at 37° C. until OD600 was 0.6-1.0, then the next step was antibacterial experiment (Day 3); the remaining overnight cultured broth was stored in the refrigerator at 2-8° C. until needed.
Day 2 afternoon, 10 μL overnight cultured broth was inoculated in 10 mL LB medium without any antibiotics, and was cultured on oscillator at 37° C. overnight;
Day 3 morning, 200 μL overnight cultured broth (1:100 ratio) was transferred to 20 mL LB medium without any antibiotics, and was cultured on oscillator at 37° C. until OD600 was 0.6-1.0, then the next step was antibacterial experiment (Day 3).
Before the experiment started, 1.5% agar plate (lower medium) prepared beforehand was placed at room temperature for at least one hour;
Top agar medium (containing 0.8%/agar) was melted, and packaged. Each 1.6 mL of Top agar medium was packaged in each tube, and then the small tube was placed in 45° C. water bath to keep warm;
10 mL E. coli bacteria of OD600 0.6-1.0 was transferred into 50 mL centrifuge tubes to centrifuge (1000 rpm×5 min); After centrifugation, the supernatant was discarded, the bacteria precipitate was resuspended by adding 10 mL PBS; the above-described bacterial suspension was diluted 1×10^5 fold in PBS dilution by multiple proportion dilution (from 10-fold); After the drug action finished (24 hours or 48 hours), U-937 cells was centrifugated (1000 rpm, 5 min). After centrifugation, the supernatant was drawn back;
Each centrifuge tube previously added 50 μL diluted bacterial suspension (approximately 150-250 bacteria);
Bacterial suspension were added with 1.2 mL cell supernatant from each cell supernatant, and mixed;
The supernatant/bacterial mixture was placed on shaking table (200 rpm) at 37° C. and was incubated for 90 minutes. After incubation, the next step was plating;
Plating: 0.8 mL of cell supernatant/broth mixture was mixed with 1.6 mL top agar medium, the mixture was plated on 1.5% agar plates, 600 uL per well in triplicate.
Sterility test: 800 uL PBS and 1.6 mL top agar medium was mixed, and plated as above. […]

C=C1/C(=C\C=C2/CCC[C@]3(C)[C@@H]([C@H](C)CCCC(C)(C)O)CC[C@@H]23)C[C@@H](O)C[C@@H]1O [VD3, 1,25-dihydroxyvitamin D3]
antibacterial activity of cell lysates (E. coli CFT073 [1]): significant antibacterial activity
antibacterial effect (relative CFU of 5637 cell lysate vs ethanol control) (E. coli CFT073 [2]): significant antibacterial effect
LL-37 levels in cell lysates (LL-37): significant dose-dependent increase
CFU (E. coli O111B4; High dose, VD3 10^−7M, Day 1, Serum 10%): 172
CFU (E. coli O111B4; High dose, VD3 10^−7M, Day 2, Serum 1%): 112
CFU (E. coli O111B4; High dose, VD3 10^−7M, Day 2, Serum 10%): 127
CFU (E. coli O111B4; High dose, VD3 10^−7N, Day 1, Serum 1%): 108
CFU (E. coli O111B4; Low Dose, VD3 10^−8M, Day 1, Serum 1%): 102
CFU (E. coli O111B4; Low Dose, VD3 10^−8M, Day 1, Serum 10%): 112
CFU (E. coli O111B4; Low Dose, VD3 10^−8M, Day 2, Serum 1%): 93
CFU (E. coli O111B4; Low Dose, VD3 10^−8M, Day 2, Serum 10%): 97
antibacterial effect of supernatant solution (E. coli O111B4; U937 cells stimulated by different concentrations of VD3): significant antibacterial effect

CC1(C)S[C@@H]2[C@H](NC(=O)[C@H](N)c3ccccc3)C(=O)N2[C@H]1C(=O)O [antibiotic control group, ampicillin]
colonies produced (E. coli O111B4; antibiotics control experiment: PBS, broth, 2 uL ampicillin, top agar): no colonies produced
